How the values were obtained:
blackgrass [1] = test: Test A preemergence; assay type: in vivo, Alopecurus myosuroides
How it was run: (§1)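 Greenhouse pot test, 10 days. Compound (non-phytotoxic solvent, surfactant) sprayed on soil at seeding or on seedlings at one- to two-leaf stage. Visual injury rated 0–100 against untreated plants.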

corn [2] = test: Test A preemergence; assay type: in vivo, Zea mays
How it was run: as §1

foxtail, giant [3] = test: Test A preemergence; assay type: in vivo, Setaria faberi
How it was run: as §1

goosegrass [4] = test: Test A preemergence; assay type: in vivo, Eleusine indica
How it was run: as §1

kochia [5] = test: Test A preemergence; assay type: in vivo, Bassia scoparia
How it was run: as §1

oat, wild [6] = test: Test A preemergence; assay type: in vivo, Avena fatua
How it was run: as §1

pigweed, palmer [7] = test: Test A preemergence; assay type: in vivo, Amaranthus palmeri
How it was run: as §1

ragweed [8] = test: Test A preemergence; assay type: in vivo, Ambrosia artemisiifolia
How it was run: as §1

ryegrass, Italian [9] = test: Test A preemergence; assay type: in vivo, Lolium multiflorum
How it was run: as §1

soybean [10] = test: Test A preemergence; assay type: in vivo, Glycine max
How it was run: as §1

wheat [11] = test: Test A preemergence; assay type: in vivo, Triticum aestivum
How it was run: as §1

blackgrass [12] = test: Test A postemergence; assay type: in vivo, Alopecurus myosuroides; details: postemergence, 10 days; for Plant response rating, Blackgrass: visual injury
How it was run: as §1

corn [13] = test: Test A postemergence; assay type: in vivo, Zea mays; details: postemergence, 10 days; for Plant response rating, Corn: visual injury
How it was run: as §1

foxtail, giant [14] = test: Test A postemergence; assay type: in vivo, Setaria faberi; details: postemergence, 10 days; for Plant response rating, Foxtail, Giant: visual injury
How it was run: as §1

goosegrass [15] = test: Test A postemergence; assay type: in vivo, Eleusine indica; details: postemergence, 10 days; for Plant response rating, Goosegrass: visual injury
How it was run: as §1

kochia [16] = test: Test A postemergence; assay type: in vivo, Bassia scoparia; details: postemergence, 10 days; for Plant response rating, Kochia: visual injury
How it was run: as §1

oat, wild [17] = test: Test A postemergence; assay type: in vivo, Avena fatua; details: postemergence, 10 days; for Plant response rating, Oat, Wild: visual injury
How it was run: as §1

pigweed, palmer [18] = test: Test A postemergence; assay type: in vivo, Amaranthus palmeri; details: postemergence, 10 days; for Plant response rating, Pigweed, Palmer: visual injury
How it was run: as §1

ragweed [19] = test: Test A postemergence; assay type: in vivo, Ambrosia artemisiifolia; details: postemergence, 10 days; for Plant response rating, Ragweed: visual injury
How it was run: as §1

ryegrass, Italian [20] = test: Test A postemergence; assay type: in vivo, Lolium multiflorum; details: postemergence, 10 days; for Plant response rating, Ryegrass, Italian: visual injury
How it was run: as §1

soybean [21] = test: Test A postemergence; assay type: in vivo, Glycine max; details: postemergence, 10 days; for Plant response rating, Soybean: visual injury
How it was run: as §1

wheat [22] = test: Test A postemergence; assay type: in vivo, Triticum aestivum; details: postemergence, 10 days; for Plant response rating, Wheat: visual injury
How it was run: as §1

horseweed = test: Test A postemergence; assay type: in vivo, Erigeron canadensis; details: postemergence, 10 days; for Plant response rating, Horseweed: visual injury
How it was run: as §1

barnyardgrass = test: Test B flooded paddy test; assay type: in vivo, Echinochloa crus-galli; details: 250 g ai/ha, Flood, 13 days, 0 to 100 scale (0 no effect, 100 complete control)
How it was run: (§2)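 Percent weed or crop control, judged by eye on a 0–100 scale 13 days post-treatment, reflects compound added to a 3 cm flood maintained over 2-leaf plants in the greenhouse. Missing entries are marked with a dash.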

ducksalad = test: Test B flooded paddy test; assay type: in vivo, Heteranthera limosa; details: 250 g ai/ha, Flood, 13 days, 0 to 100 scale (0 no effect, 100 complete control)
How it was run: as §2

rice = test: Test B flooded paddy test; assay type: in vivo, Oryza sativa; details: 250 g ai/ha, Flood, 13 days, 0 to 100 scale (0 no effect, 100 complete control)
How it was run: as §2

sedge, umbrella = test: Test B flooded paddy test; assay type: in vivo, Cyperus difformis; details: 250 g ai/ha, Flood, 13 days, 0 to 100 scale (0 no effect, 100 complete control)
How it was run: as §2

[23] = 125 g ai/ha, visual injury after 10 days, 0 to 100 scale, 0 is no effect, 100 is complete control
[24] = 500 g ai/ha, 0 to 100 scale (0 no effect, 100 complete control), 10 days
[25] = 125 g ai/ha, 0 to 100 scale, 0 no effect, 100 complete control
[26] = 500 g ai/ha, 0 to 100 scale (0 no effect, 100 complete control)
[27] = 31 g ai/ha, 0 to 100 scale (0 no effect, 100 complete control)
[28] = 125 g ai/ha, 0 to 100 scale (0 no effect, 100 complete control)

## Cc1cccc2c1O[C@@H](C)CN2C(=O)c1cccc(-n2cnc(C3CCCCC3)n2)c1 [Compound 82]
Blackgrass [1]; [23]
  Plant response rating, Blackgrass: 0
Blackgrass [1]; [24]
  Plant response rating, Blackgrass: 0
Corn [2]; [23]
  Plant response rating, Corn: 0
Corn [2]; [24]
  Plant response rating, Corn: 10
foxtail, giant [3]; [23]
  Plant response rating, Foxtail, Giant: 0
foxtail, giant [3]; [24]
  Plant response rating, Foxtail, Giant: 20
Goosegrass [4]; [23]
  Plant response rating, Goosegrass: 20
Goosegrass [4]; [24]
  Plant response rating, Goosegrass: 90
Kochia [5]; [23]
  Plant response rating, Kochia: 0
Kochia [5]; [24]
  Plant response rating, Kochia: 0
oat, wild [6]; [23]
  Plant response rating, Oat, Wild: 10
oat, wild [6]; [24]
  Plant response rating, Oat, Wild: 20
pigweed, palmer [7]; [23]
  Plant response rating, Pigweed, Palmer: 0
pigweed, palmer [7]; [24]
  Plant response rating, Pigweed, Palmer: 40
Ragweed [8]; [23]
  Plant response rating, Ragweed: 0
Ragweed [8]; [24]
  Plant response rating, Ragweed: 0
ryegrass, Italian [9]; [23]
  Plant response rating, Ryegrass, Italian: 60
ryegrass, Italian [9]; [24]
  Plant response rating, Ryegrass, Italian: 100
Soybean [10]; [23]
  Plant response rating, Soybean: 0
Soybean [10]; [24]
  Plant response rating, Soybean: 0
Wheat [11]; [23]
  Plant response rating, Wheat: 0
Wheat [11]; [24]
  Plant response rating, Wheat: 0
Blackgrass [12]; [25]
  Blackgrass plant response rating: 0
Blackgrass [12]; [26]
  Plant response rating, Blackgrass: 10
Corn [13]; [25]
  Corn plant response rating: 0
Corn [13]; [26]
  Plant response rating, Corn: 10
foxtail, giant [14]; [25]
  Foxtail, Giant plant response rating: 10
foxtail, giant [14]; [26]
  Plant response rating, Foxtail, Giant: 10
Goosegrass [15]; [25]
  Goosegrass plant response rating: 0
Goosegrass [15]; [26]
  Plant response rating, Goosegrass: 20
Kochia [16]; [25]
  Kochia plant response rating: 70
Kochia [16]; [26]
  Plant response rating, Kochia: 80
oat, wild [17]; [25]
  Oat, Wild plant response rating: 0
oat, wild [17]; [26]
  Plant response rating, Oat, Wild: 0
pigweed, palmer [18]; [25]
  Pigweed, Palmer plant response rating: 0
pigweed, palmer [18]; [26]
  Plant response rating, Pigweed, Palmer: 50
Ragweed [19]; [25]
  Ragweed plant response rating: 0
Ragweed [19]; [26]
  Plant response rating, Ragweed: 50
ryegrass, Italian [20]; [25]
  Ryegrass, Italian plant response rating: 0
ryegrass, Italian [20]; [26]
  Plant response rating, Ryegrass, Italian: 30
Soybean [21]; [25]
  Soybean plant response rating: 90
Soybean [21]; [26]
  Plant response rating, Soybean: 90
Wheat [22]; [25]
  Wheat plant response rating: 10
Wheat [22]; [26]
  Plant response rating, Wheat: 10
horseweed; [25]
  Horseweed plant response rating: 0
horseweed; [26]
  Plant response rating, Horseweed: 0
barnyardgrass
  Plant response rating, Barnyardgrass: 0
ducksalad
  Plant response rating, Ducksalad: 0
rice
  Plant response rating, Rice: 0
sedge, umbrella
  Plant response rating, Sedge, Umbrella: 0

## Cc1ccc(-n2cnc(Br)n2)cc1C(=O)N1C[C@H](C)Oc2c(Cl)cccc21 [Compound 62]
Blackgrass [1]; 31 g ai/ha, 0 to 100 scale
  Plant response rating, Blackgrass: 0
Blackgrass [1]; [23]
  Plant response rating, Blackgrass: 40
Corn [2]; 31 g ai/ha, 0 to 100 scale
  Plant response rating, Corn: 0
Corn [2]; [23]
  Plant response rating, Corn: 0
foxtail, giant [3]; 31 g ai/ha, 0 to 100 scale
  Plant response rating, Foxtail, Giant: 20
foxtail, giant [3]; [23]
  Plant response rating, Foxtail, Giant: 90
Goosegrass [4]; 31 g ai/ha, 0 to 100 scale
  Plant response rating, Goosegrass: 70
Goosegrass [4]; [23]
  Plant response rating, Goosegrass: 100
Kochia [5]; 31 g ai/ha, 0 to 100 scale
  Plant response rating, Kochia: 10
Kochia [5]; [23]
  Plant response rating, Kochia: 80
oat, wild [6]; 31 g ai/ha, 0 to 100 scale
  Plant response rating, Oat, Wild: 0
oat, wild [6]; [23]
  Plant response rating, Oat, Wild: 0
pigweed, palmer [7]; 31 g ai/ha, 0 to 100 scale
  Plant response rating, Pigweed, Palmer: 70
pigweed, palmer [7]; [23]
  Plant response rating, Pigweed, Palmer: 90
Ragweed [8]; 31 g ai/ha, 0 to 100 scale
  Plant response rating, Ragweed: 0
Ragweed [8]; [23]
  Plant response rating, Ragweed: 20
ryegrass, Italian [9]; 31 g ai/ha, 0 to 100 scale
  Plant response rating, Ryegrass, Italian: 0
ryegrass, Italian [9]; [23]
  Plant response rating, Ryegrass, Italian: 70
Soybean [10]; 31 g ai/ha, 0 to 100 scale
  Plant response rating, Soybean: 0
Soybean [10]; [23]
  Plant response rating, Soybean: 0
Wheat [11]; 31 g ai/ha, 0 to 100 scale
  Plant response rating, Wheat: 0
Wheat [11]; [23]
  Plant response rating, Wheat: 0
Blackgrass [12]; [27]
  Blackgrass plant response rating: 40
Blackgrass [12]; [28]
  Plant response rating, Blackgrass: 50
Corn [13]; [27]
  Corn plant response rating: 10
Corn [13]; [28]
  Plant response rating, Corn: 10
foxtail, giant [14]; [27]
  Foxtail, Giant plant response rating: 20
foxtail, giant [14]; [28]
  Plant response rating, Foxtail, Giant: 90
Goosegrass [15]; [27]
  Goosegrass plant response rating: 10
Goosegrass [15]; [28]
  Plant response rating, Goosegrass: 20
Kochia [16]; [27]
  Kochia plant response rating: 80
Kochia [16]; [28]
  Plant response rating, Kochia: 90
oat, wild [17]; [27]
  Oat, Wild plant response rating: 0
oat, wild [17]; [28]
  Plant response rating, Oat, Wild: 20
pigweed, palmer [18]; [27]
  Pigweed, Palmer plant response rating: 40
pigweed, palmer [18]; [28]
  Plant response rating, Pigweed, Palmer: 50
Ragweed [19]; [27]
  Ragweed plant response rating: 10
Ragweed [19]; [28]
  Plant response rating, Ragweed: 20
ryegrass, Italian [20]; [27]
  Ryegrass, Italian plant response rating: 0
ryegrass, Italian [20]; [28]
  Plant response rating, Ryegrass, Italian: 40
Soybean [21]; [27]
  Soybean plant response rating: 100
Soybean [21]; [28]
  Plant response rating, Soybean: 100
Wheat [22]; [27]
  Wheat plant response rating: 10
Wheat [22]; [28]
  Plant response rating, Wheat: 10
horseweed; [27]
  Horseweed plant response rating: 0
horseweed; [28]
  Plant response rating, Horseweed: 0
barnyardgrass
  Plant response rating, Barnyardgrass: 0
ducksalad
  Plant response rating, Ducksalad: 0
rice
  Plant response rating, Rice: 0
sedge, umbrella
  Plant response rating, Sedge, Umbrella: 0
